Tests used:
HIV protease [1] = biological target: T1, HIV protease (Human immunodeficiency virus type 1 group M subtype B, UniProt P03366); type: cell-based; conditions: drugs screened at 10 μM; MAGeCK analysis; WT and KO cells
Protocol: (§1) Implementation of drug screening platform for proteases of viral or bacterial origin. Y axis represents drugs screened at 10 uM. X axis represents protein modeled and which cell line. WT=Natural expression of drug transporters. KO=No expression of PDR1, PDR3 and SNQ2.
(§2) All drugs were screened at a concentration of 10 μM. Barcoded cells expressing various protein drug targets were grown up individually on agar plates containing SC-ura-leu glucose. These strains were then inoculated into SC-ura-leu with glucose liquid culture media and after overnight growth were mixed together in equal amounts to generate the DNA barcoded library. The DNA barcoded library was then inoculated into SC-ura-leu with galactose liquid culture media with and without small molecule compounds.
(§3) Amplicons for NGS were generated through a two-step PCR protocol. Barcode sequences were amplified with Taq polymerase from genomic DNA preparations with primers anchored in constant regions of the 415-Kan-BC plasmid.

HIV protease [2] = biological target: T1, HIV protease; type: cell-based; conditions: for rescue in 3Δ cells compared to wild type cells: Δpdr1 Δpdr3 Δsnq2 (3Δ) vs WT yeast, SC-ura galactose plates with indicated amount of inhibitor (FIG. 9)
Protocol: FIG. 5: Spot assays of Δpdr1 Δpdr3 Δsnq2 yeast expressing pAG426-GAL empty vector or pAG426-GAL-HIV protease. Strains were grown to saturation in SC-ura glucose media and serial dilutions (10-fold) of yeast were plated on SC-ura glucose or SC-ura galactose plates with or without 5 μM lopinavir added.
Cells expressing pAG426-GAL-HIV vectors were transformed into either wild type (WT) or Δpdr1 Δpdr3 Δsnq2 (3Δ) yeast which show a reduced ability to export exogenous small molecules from the cell. Cells were then grown overnight in SC-ura glucose media and spotted at 10-fold serial dilution onto SC-ura galactose plates containing the indicated amount of HIV protease inhibitor (Lopinavir or Saquinavir).

EYFP = type: cell-based; conditions: drugs screened at 10 μM; MAGeCK analysis
Protocol: as §1, §2, §3

mcherry = assay: Manual spot assay of cultures plated in 5-fold dilutions (FIG. 12B); type: cell-based; conditions: consecutive 5-fold dilutions
Protocol: (§4) Y axis represents drugs screened at 10 uM. X axis represents protein modeled and which cell line. WT=Natural expression of drug transporters. KO=No expression of multidrug transporters PDR1 and PDR3.

ALS models = assay: Pooled DNA barcoded drug screen of ALS models against 22 small molecules (FIG. 14/18); type: cell-based, yeast; conditions: ten ALS models as mixed pool
Protocol: Y axis represents drugs screened at 10 uM. X axis represents protein modeled and which cell line. WT=Natural expression of drug transporters.

TAF15 = biological target: T2, TAF15 (Homo sapiens, UniProt Q92804); assay: Manual spot assay of cultures plated in 5-fold dilutions (FIG. 12B); type: cell-based; conditions: consecutive 5-fold dilutions
T2 construct: expressed in transfected cells; host or cells: Saccharomyces cerevisiae, galactose-inducible expression
T2 sequence (Q92804 whole entry): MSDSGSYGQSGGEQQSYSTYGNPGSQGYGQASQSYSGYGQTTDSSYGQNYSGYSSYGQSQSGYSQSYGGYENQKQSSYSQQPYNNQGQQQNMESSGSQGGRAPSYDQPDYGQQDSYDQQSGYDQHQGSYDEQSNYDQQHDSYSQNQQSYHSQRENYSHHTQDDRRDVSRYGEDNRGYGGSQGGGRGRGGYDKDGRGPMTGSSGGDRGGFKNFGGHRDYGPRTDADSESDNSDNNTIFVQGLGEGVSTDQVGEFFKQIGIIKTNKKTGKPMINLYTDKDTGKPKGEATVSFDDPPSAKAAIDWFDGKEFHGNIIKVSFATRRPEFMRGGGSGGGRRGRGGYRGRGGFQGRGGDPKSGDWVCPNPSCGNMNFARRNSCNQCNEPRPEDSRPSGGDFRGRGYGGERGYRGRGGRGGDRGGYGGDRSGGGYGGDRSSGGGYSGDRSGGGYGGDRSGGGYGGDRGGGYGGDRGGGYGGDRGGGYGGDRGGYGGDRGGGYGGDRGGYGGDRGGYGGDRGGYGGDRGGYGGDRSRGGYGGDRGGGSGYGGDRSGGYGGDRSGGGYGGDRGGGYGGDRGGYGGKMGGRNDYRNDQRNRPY
Protocol: as §4
(§5) In addition, the presently disclosed screening methods were also applied towards an entirely orthogonal set of proteins. Aggregation-prone proteins are prevalent in numerous eukaryotic life forms and are implicated in a wide range of neurodegenerative diseases. […] In a drug screen of aggregation-prone proteins against 23 drugs, two significant interactions were identified (see FIG. 12A).

OPTN = biological target: T3, OPTN (Homo sapiens, UniProt Q96CV9); assay: as above; type: cell-based; conditions: consecutive 5-fold dilutions
T3 construct: expressed in transfected cells; host or cells: Saccharomyces cerevisiae, galactose-inducible expression
T3 sequence (Q96CV9 whole entry): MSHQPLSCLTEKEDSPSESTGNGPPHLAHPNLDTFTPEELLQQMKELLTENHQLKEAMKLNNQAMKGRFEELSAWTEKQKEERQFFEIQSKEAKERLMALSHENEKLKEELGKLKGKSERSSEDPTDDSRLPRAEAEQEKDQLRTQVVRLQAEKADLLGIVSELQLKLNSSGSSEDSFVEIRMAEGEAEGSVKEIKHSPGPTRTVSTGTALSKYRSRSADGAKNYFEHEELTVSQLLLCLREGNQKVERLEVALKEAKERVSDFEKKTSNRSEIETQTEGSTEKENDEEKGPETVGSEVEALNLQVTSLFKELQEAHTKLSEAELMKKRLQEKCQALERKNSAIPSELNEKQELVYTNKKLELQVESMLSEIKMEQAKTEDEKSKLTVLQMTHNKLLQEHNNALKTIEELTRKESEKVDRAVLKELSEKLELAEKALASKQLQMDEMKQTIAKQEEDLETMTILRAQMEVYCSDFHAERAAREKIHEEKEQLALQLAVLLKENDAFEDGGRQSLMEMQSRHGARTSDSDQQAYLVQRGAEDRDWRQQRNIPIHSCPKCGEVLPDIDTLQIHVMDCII
Protocol: as §4, §5

wimpy yeast = assay: Off-target toxicity detection with barcoded wimpy yeast (FIG. 25B, 25D); type: cell-based; conditions: mixed pool
Excerpt: FIG. 25A-FIG. 25D: Wimpy Yeast allow for detection of drugs causing off-target toxicity in barcoded yeast pools. […] FIG. 25C and FIG. 25D: For a subset of drugs with known specific rescue of various proteases and kinases, the present screen is able to capture these effects, and a corresponding decrease in growth of any of the tested wimpy yeast was not observed. For all figures each of the protein targets of interest expressed in the yeast cells or the genes knocked out of their genome is listed on the x-axis. […] FDR=false discovery rate, FDR for FIG. 25A and FIG. 25C are in relation to enrichment while FIG. 25B and FIG. 25D are in relation to depletion.
To detect drugs that have additional pleotropic effects, which may confound the interpretation by appearing to rescue specific models, but in fact was a result of off-target effects rather than on-target enzymatic inhibition, a series of “wimpy” yeast were developed that were engineered to be sensitive to a wide variety of off-target drug toxicities (i.e., perturbations to various biological pathways). These wimpy yeast strains are engineered by using genetic mutation to selectively render the cells hypersensitive to perturbations to various core cellular pathways. […]

[3] = tested on: protease and kinase expressing cells; assay: Mixed pool barcoded drug screen of protease and kinase expressing yeast (Example 4, FIG. 23, 25); type: cell-based; conditions: FIG. 25A/25C
Excerpt: FIG. 23A-FIG. 23C: Modulation of multidrug exporters enables the testing of multiple drug concentrations in parallel. FIG. 23A: Cells expressing wild type levels of multidrug exporters capture compound known to inhibit HIV protease activity. FIG. 23B: Similar to FIG. 23A, except cells are deficient in the expression of several multidrug exporters. A greater number of previously identified protease and kinase inhibitors are identified when using the drug exporter deficient background. FIG. 23C: The average degree of rescue, measured by the growth recovery of a specific yeast strain expressing a toxic protein, is higher in the knockout background as a result of higher intracellular drug concentrations. […] Furthermore, all of the hits shown are previously validated drug-target interactions. Each of the protein targets of interest expressed in the yeast cells is listed on the x-axis. […] FDR=false discovery rate, and is in relation to enrichment. […]
A single drug screen was performed on a mixed pool of yeast cells harboring various target proteins in order to identify compounds that interfere with each of the tested protein's function. […] In order to test multiple protein targets at a time, a unique DNA barcode was added to each yeast cell, such that when read using next generation sequencing, its abundance within a mixed pool can be quantified. […]

HIV protease [4] = biological target: T1, HIV protease; type: cell-based; conditions: control cells within ALS mixed pool screen
Excerpt: Ten disease models were probed as a mixed pool across a set of 22 small molecules. […] In these experiments cells containing HIV protease, DNAseI and mCherry served as controls.
Ten ALS models were probed as a mixed pool across a set of 22 small molecules. […] In these experiments, cells containing HIV protease and DNaseI served as positive controls, and cells containing mCherry served as negative controls.

**Q.** For `COC(=O)N[C@H](C(=O)N[C@@H](Cc1ccccc1)[C@@H](O)CN(Cc1ccc(-c2ccccn2)cc1)NC(=O)[C@@H](NC(=O)OC)C(C)(C)C)C(C)(C)C` [atazanavir], which “barcode enrichment / protein-drug interaction for cells expressing HIV protease” value (HIV protease [1]) is on record?
**A.** Its value is “protein-drug interactions”.

**Q.** For `Cc1cccc(C)c1OCC(=O)N[C@@H](Cc1ccccc1)[C@@H](O)C[C@H](Cc1ccccc1)NC(=O)[C@H](C(C)C)N1CCCNC1=O` [Lopinavir], which “rescue in 3Δ cells compared to wild type cells” value (HIV protease [2]) is on record?
**A.** The value was “significant increases in rescue”.

**Q.** And the “mitigation of toxicity of yeast expressing HIV protease” value (HIV protease [2]; Δpdr1 Δpdr3 Δsnq2 yeast, SC-ura galactose plates, 5 μM lopinavir (FIG. 5))?
**A.** The value was “toxicity can be mitigated”.

**Q.** For `CCCC(CCC)C(=O)O` [valproic acid], which “non-specific drug interaction with control-expressing cells” value (EYFP) is on record?
**A.** The value was “non-specific drug interactions”.

**Q.** For `Nc1nc2ccc(OC(F)(F)F)cc2s1` [Riluzole], which “growth of mcherry expressing cells in the presence of drug” value (mcherry) is on record?
**A.** Its value is “decreased growth”.

**Q.** What about the “hit among >200 tested ALS gene-drug interactions” value (ALS models) of the same compound?
**A.** The value was “potential hits”.

**Q.** What about the “growth of TAF15 expressing cells in the presence of drug” value (TAF15) of the same compound?
**A.** Its value is “decreased growth”.

**Q.** And the “growth of OPTN expressing cells in the presence of drug” value (OPTN)?
**A.** The value was “slight growth improvement”.

**Q.** `CC(=O)[C@]1(O)Cc2c(O)c3c(c(O)c2[C@@H](O[C@H]2C[C@H](N)[C@H](O)[C@H](C)O2)C1)C(=O)c1ccccc1C3=O` [idarubicin] was tested. Which “growth of the wimpy yeast models (barcode depletion)” value (wimpy yeast) did it give?
**A.** The value was “decrease in the growth”.

**Q.** What about the “rescue of protease and kinase expressing cells (barcode enrichment)” value [3] of the same compound?
**A.** Its value is “significant rescue”.

**Q.** Which “rescue of growth for cells expressing HIV protease” value (HIV protease [4]) does the source give for `CC(C)CN(C[C@@H](O)[C@H](Cc1ccccc1)NC(=O)O[C@H]1CO[C@H]2OCC[C@H]21)S(=O)(=O)c1ccc(N)cc1` [Darunavir] here?
**A.** The value was “expected rescue of growth”.

**Q.** With `CC(C)(C)NC(=O)[C@@H]1C[C@@H]2CCCC[C@@H]2CN1C[C@@H](O)[C@H](Cc1ccccc1)NC(=O)[C@H](CC(N)=O)NC(=O)c1ccc2ccccc2n1` [Saquinavir] as the compound, how does the “rescue in 3Δ cells compared to wild type cells” value (HIV protease [2]) read?
**A.** The value was “significant increases in rescue”.
